Experimental data published in ChEMBL document CHEMBL1136854, “Synthesis and pharmacological evaluation of aminopyrimidine series of 5-HT1A partial agonists” (Bioorg Med Chem Lett, 2009).

Test: in vitro
Details: human, liver microsomes

| Structure (SMILES) | CLint scaled [mL/min/kg] | CLint scaled (CL) [mL/min/kg] |
| --- | --- | --- |
| c1cc(C2CCCN(CCc3cscn3)C2)nc(NC2CC2)n1 (centres undefined) | 15 |  |
| Cc1[nH]c2ccc(Cl)cc2c1CCN1CCCC(c2ccnc(NC3CC3)n2)C1 (centres undefined) |  | 135 |
| Fc1cccc2c(CCN3CCCC(c4ccnc(NC5CC5)n4)C3)c[nH]c12 (centres undefined) |  | 28 |
| O=C1CC2(CCCC2)CC(=O)N1CCCCN1CCN(c2ncccn2)CC1 [BUSPIRONE] |  | 148 |
